Reference: ChEMBL document CHEMBL3621049, “Imidazole derivatives show anticancer potential by inducing apoptosis and cellular senescence” (2014)
Activity calls are given as the source filed them.

How the values were obtained:
Type in all cases: functional, cell-based
[1] = tested on: CCRF-CEM; experiment: Growth inhibition of human CCRF-CEM cells at 10 uM by sulforhodamine B assay
[2] = tested on: HL-60(TB); experiment: Growth inhibition of human HL-60(TB) cells at 10 uM by sulforhodamine B assay
[3] = tested on: K562; experiment: Growth inhibition of human K562 cells at 10 uM by sulforhodamine B assay
[4] = tested on: MOLT-4; experiment: Growth inhibition of human MOLT4 cells at 10 uM by sulforhodamine B assay
[5] = tested on: RPMI-8226; experiment: Growth inhibition of human RPMI8226 cells at 10 uM by sulforhodamine B assay
[6] = tested on: SR; experiment: Growth inhibition of human SR cells at 10 uM by sulforhodamine B assay
[7] = tested on: A549; experiment: Growth inhibition of human A549/ATCC cells at 10 uM by sulforhodamine B assay
[8] = tested on: HOP-62; experiment: Growth inhibition of human HOP62 cells at 10 uM by sulforhodamine B assay
[9] = tested on: NCI-H226; experiment: Growth inhibition of human NCI-H226 cells at 10 uM by sulforhodamine B assay
[10] = tested on: NCI-H23; experiment: Growth inhibition of human NCI-H23 cells at 10 uM by sulforhodamine B assay
[11] = tested on: NCI-H322M; experiment: Growth inhibition of human NCI-H322M cells at 10 uM by sulforhodamine B assay
[12] = tested on: NCI-H460; experiment: Growth inhibition of human NCI-H460 cells at 10 uM by sulforhodamine B assay
[13] = tested on: NCI-H522; experiment: Growth inhibition of human NCI-H522 cells at 10 uM by sulforhodamine B assay
[14] = tested on: COLO 205; experiment: Growth inhibition of human COLO205 cells at 10 uM by sulforhodamine B assay
[15] = tested on: HCT-116; experiment: Growth inhibition of human HCT116 cells at 10 uM by sulforhodamine B assay
[16] = tested on: HCT-15; experiment: Growth inhibition of human HCT15 cells at 10 uM by sulforhodamine B assay
[17] = tested on: HT-29; experiment: Growth inhibition of human HT-29 cells at 10 uM by sulforhodamine B assay
[18] = tested on: KM12; experiment: Growth inhibition of human KM12 cells at 10 uM by sulforhodamine B assay
[19] = tested on: SW-620; experiment: Growth inhibition of human SW620 cells at 10 uM by sulforhodamine B assay
[20] = tested on: SF-268; experiment: Growth inhibition of human SF268 cells at 10 uM by sulforhodamine B assay
[21] = tested on: SF-295; experiment: Growth inhibition of human SF295 cells at 10 uM by sulforhodamine B assay
[22] = tested on: SF-539; experiment: Growth inhibition of human SF539 cells at 10 uM by sulforhodamine B assay
[23] = tested on: SNB-19; experiment: Growth inhibition of human SNB19 cells at 10 uM by sulforhodamine B assay
[24] = tested on: SNB-75; experiment: Growth inhibition of human SNB75 cells at 10 uM by sulforhodamine B assay
[25] = tested on: U-251; experiment: Growth inhibition of human U251 cells at 10 uM by sulforhodamine B assay
[26] = tested on: LOX IMVI; experiment: Growth inhibition of human LOXIMVI cells at 10 uM by sulforhodamine B assay
[27] = tested on: M14; experiment: Growth inhibition of human M14 cells at 10 uM by sulforhodamine B assay
[28] = tested on: MDA-MB-435; experiment: Growth inhibition of human MDA-MB-435 cells at 10 uM by sulforhodamine B assay
[29] = tested on: SK-MEL-2; experiment: Growth inhibition of human SK-MEL-2 cells at 10 uM by sulforhodamine B assay
[30] = tested on: SK-MEL-28; experiment: Growth inhibition of human SK-MEL-28 cells at 10 uM by sulforhodamine B assay
[31] = tested on: SK-MEL-5; experiment: Growth inhibition of human SK-MEL-5 cells at 10 uM by sulforhodamine B assay
[32] = tested on: UACC-257; experiment: Growth inhibition of human UACC257 cells at 10 uM by sulforhodamine B assay
[33] = tested on: IGROV-1; experiment: Growth inhibition of human IGROV1 cells at 10 uM by sulforhodamine B assay
[34] = tested on: OVCAR-3; experiment: Growth inhibition of human OVCAR3 cells at 10 uM by sulforhodamine B assay
[35] = tested on: OVCAR-4; experiment: Growth inhibition of human OVCAR4 cells at 10 uM by sulforhodamine B assay
[36] = tested on: OVCAR-5; experiment: Growth inhibition of human OVCAR5 cells at 10 uM by sulforhodamine B assay
[37] = tested on: OVCAR-8; experiment: Growth inhibition of human OVCAR8 cells at 10 uM by sulforhodamine B assay
[38] = tested on: NCI/ADR-RES; experiment: Growth inhibition of human NCI/ADR-RES cells at 10 uM by sulforhodamine B assay
[39] = tested on: SK-OV-3; experiment: Growth inhibition of human SKOV3 cells at 10 uM by sulforhodamine B assay
[40] = tested on: 786-0; experiment: Growth inhibition of human 786-0 cells at 10 uM by sulforhodamine B assay
[41] = tested on: A498; experiment: Growth inhibition of human A498 cells at 10 uM by sulforhodamine B assay
[42] = tested on: ACHN; experiment: Growth inhibition of human ACHN cells at 10 uM by sulforhodamine B assay
[43] = tested on: CAKI-1; experiment: Growth inhibition of human Caki1 cells at 10 uM by sulforhodamine B assay
[44] = tested on: SN12C; experiment: Growth inhibition of human SN12C cells at 10 uM by sulforhodamine B assay
[45] = tested on: UO-31; experiment: Growth inhibition of human UO31 cells at 10 uM by sulforhodamine B assay
[46] = tested on: PC-3; experiment: Growth inhibition of human PC3 cells at 10 uM by sulforhodamine B assay
[47] = tested on: DU-145; experiment: Growth inhibition of human DU145 cells at 10 uM by sulforhodamine B assay
[48] = tested on: MCF7; experiment: Growth inhibition of human MCF7 cells at 10 uM by sulforhodamine B assay
[49] = tested on: MDA-MB-231; experiment: Growth inhibition of human MDA-MB-231 cells at 10 uM by sulforhodamine B assay
[50] = tested on: Hs-578T; experiment: Growth inhibition of human Hs 578T cells at 10 uM by sulforhodamine B assay
[51] = tested on: BT-549; experiment: Growth inhibition of human BT549 cells at 10 uM by sulforhodamine B assay
[52] = tested on: T47D; experiment: Growth inhibition of human T47D cells at 10 uM by sulforhodamine B assay
[53] = tested on: MDA-MB-468; experiment: Growth inhibition of human MDA-MB-468 cells at 10 uM by sulforhodamine B assay
[54] = tested on: TK-10; experiment: Growth inhibition of human TK10 cells at 10 uM by sulforhodamine B assay
[55] = tested on: UACC-62; experiment: Growth inhibition of human UACC62 cells at 10 uM by sulforhodamine B assay
[56] = tested on: HOP-92; experiment: Growth inhibition of human HOP92 cells at 10 uM by sulforhodamine B assay
[57] = tested on: Malme-3M; experiment: Growth inhibition of human MALME-3M cells at 10 uM by sulforhodamine B assay
[58] = tested on: HCC 2998; experiment: Growth inhibition of human HCC2998 cells at 10 uM by sulforhodamine B assay
[59] = tested on: RXF 393; experiment: Growth inhibition of human RXF393 cells at 10 uM by sulforhodamine B assay

Measured: growth inhibition (GI)

COc1ccc(-c2nc(-c3ccccc3)c(-c3ccccc3)n2C2CC2)cc1OC1CCCC1
active: all assays above

C#CCn1c(-c2ccc(OC3CCCC3)c(OC)c2)nc(-c2ccccc2)c1-c1ccccc1
active: all assays above
